Data reported in ChEMBL document CHEMBL3286251, “Treatment of Immunological or Inflammatory Disorders with ITK Kinase Inhibitors” (ACS Med Chem Lett, 2014).
pKi: −log10 of the molar value.

Target: T1, Tyrosine-protein kinase ITK/TSK (Homo sapiens, UniProt Q08881)
T1 sequence (Q08881 whole entry): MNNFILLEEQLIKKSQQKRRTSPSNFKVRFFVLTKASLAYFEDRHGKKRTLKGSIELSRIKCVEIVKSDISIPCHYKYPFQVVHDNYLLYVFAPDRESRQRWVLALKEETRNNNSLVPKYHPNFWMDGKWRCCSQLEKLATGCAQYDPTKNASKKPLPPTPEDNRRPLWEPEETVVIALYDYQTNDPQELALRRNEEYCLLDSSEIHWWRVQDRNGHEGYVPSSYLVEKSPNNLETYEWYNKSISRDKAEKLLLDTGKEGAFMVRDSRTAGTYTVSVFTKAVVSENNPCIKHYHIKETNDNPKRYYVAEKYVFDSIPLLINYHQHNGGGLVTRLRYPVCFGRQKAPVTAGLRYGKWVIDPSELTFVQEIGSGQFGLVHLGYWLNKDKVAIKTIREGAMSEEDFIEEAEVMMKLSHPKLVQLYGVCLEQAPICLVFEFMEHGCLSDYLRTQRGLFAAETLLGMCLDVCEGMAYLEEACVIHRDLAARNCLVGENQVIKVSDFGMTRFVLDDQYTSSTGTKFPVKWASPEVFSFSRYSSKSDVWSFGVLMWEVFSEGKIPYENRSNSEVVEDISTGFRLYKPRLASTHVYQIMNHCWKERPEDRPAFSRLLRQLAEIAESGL
Assay: Inhibition of ITK (unknown origin) using Acetyl-EFPIYDFLPAKKK-NH2 peptide as substrate after 1 hr by LC-MS analysis

pKi: > 10.00
SMILES: CC12Cc3[nH]nc(C(=O)Nc4cnn(C(CS(C)(=O)=O)c5cccnc5)c4)c3CC1C2 (stereo unspecified)
